Laboratory results as given in patent US6908908B2, “Biologically active 4H-benzo [1,4] oxazin-3-ones” (Ortho-McNeil Pharmaceutical, Inc., priority 2000, dated 2005).

Molecular target: T1, PPAR γ (Homo sapiens, UniProt P37231)
T1 construct: Following the challenge of the preadipocytes, cells may be lysed with lysis buffer; endogenous in cells; host or cells: preadipocytes
T1 sequence (P37231 1-505): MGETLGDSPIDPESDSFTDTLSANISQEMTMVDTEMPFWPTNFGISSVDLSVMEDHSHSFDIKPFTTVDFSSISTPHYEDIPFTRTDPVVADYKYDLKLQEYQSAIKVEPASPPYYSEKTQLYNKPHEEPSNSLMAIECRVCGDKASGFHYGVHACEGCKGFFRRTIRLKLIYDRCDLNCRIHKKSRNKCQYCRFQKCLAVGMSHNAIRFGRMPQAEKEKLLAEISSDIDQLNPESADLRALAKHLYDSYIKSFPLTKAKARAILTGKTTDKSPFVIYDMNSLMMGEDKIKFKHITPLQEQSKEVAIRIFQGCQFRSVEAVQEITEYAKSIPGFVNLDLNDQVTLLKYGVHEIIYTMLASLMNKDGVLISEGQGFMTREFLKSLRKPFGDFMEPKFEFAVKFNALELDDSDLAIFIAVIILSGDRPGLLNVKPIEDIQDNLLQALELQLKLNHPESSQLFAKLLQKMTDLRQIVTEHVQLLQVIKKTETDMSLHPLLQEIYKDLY
Assay: aP2 Assay for Agonist (induction of aP2 mRNA production); further: test concentration or dose not given here
Assay type: cell-based
Details: Table 1; fold increase over vehicle in induction of aP2 mRNA production

`CC(F)(F)CCCCN1C(=O)C(CCOc2ccccc2CC(=O)O)Oc2ccccc21` (single isomer, unassigned) [Compound 88] was tested, and the “Agonist Intrinsic Activity” value was 45.4.
In the case of `CC(F)(F)CCCCN1C(=O)C(CCOc2ccccc2CC(=O)O)Oc2ccccc21` (single isomer, unassigned) [Compound 89], the “Agonist Intrinsic Activity” value is reported as 42.0.
`O=C(O)Cc1ccccc1OCCC1Oc2ccccc2N(CCCCCCF)C1=O` (single isomer, unassigned) [Compound 92] was tested, and the “Agonist Intrinsic Activity” value was 44.8.
`O=C(O)Cc1ccccc1OCCC1Oc2ccccc2N(CCCCCCF)C1=O` (single isomer, unassigned) [Compound 93] was tested, and the “Agonist Intrinsic Activity” value was 53.1.
`COC(=O)c1ccccc1OCCC1Oc2ccccc2N(Cc2ccc(C)cc2)C1=O` (centres unmarked) [Compound 1] was tested, and the “Agonist Intrinsic Activity” value was 0.9.
With `Cc1cccc(CN2C(=O)C(CCOc3ccccc3C(F)(F)F)Oc3ccccc32)c1` (centres unmarked) [Compound 2] the “Agonist Intrinsic Activity” value was 1.2.
With `COC(=O)c1ccccc1OCCC1Oc2ccccc2N(Cc2cccc(C)c2)C1=O` (centres unmarked) [Compound 3] the “Agonist Intrinsic Activity” value was 0.6.
For `COC(=O)c1ccccc1OCCC1Oc2ccccc2N(Cc2ccccc2)C1=O` (centres unmarked) [Compound 4], the “Agonist Intrinsic Activity” value was 1.0.
With `COC(=O)c1ccccc1OCCC1Oc2ccccc2N(Cc2ccc(Cl)cc2)C1=O` (centres unmarked) [Compound 5] the “Agonist Intrinsic Activity” value was 0.7.
For `O=C1C(CCOc2ccccc2C(F)(F)F)Oc2ccccc2N1Cc1ccc(Cl)c(Cl)c1` (centres unmarked) [Compound 8], the “Agonist Intrinsic Activity” value was 3.3.
`COC(=O)c1ccccc1OCCC1Oc2ccccc2N(Cc2cccc(C(F)(F)F)c2)C1=O` (centres unmarked) [Compound 9, Benzoic acid, 2-[2-[3,4-dihydro-3-oxo-4-[[3-(trifluoromethyl)phenyl]methyl]-2H-1,4-benzoxazin-2-yl]ethoxy]-, methyl ester] was tested, and the “Agonist Intrinsic Activity” value was 0.9.
In the case of `O=C1C(CCOc2ccccc2C(F)(F)F)Oc2ccccc2N1Cc1cccc(C(F)(F)F)c1` (centres unmarked) [Compound 10], the “Agonist Intrinsic Activity” value is reported as 0.8.
In the case of `CCCCCCN1C(=O)C(CCOc2ccccc2C(=O)C(=O)O)Oc2ccccc21` (centres unmarked) [Compound 13, Benzeneacetic acid, 2-[2-(4-hexyl-3,4-dihydro-3-oxo-2H-1,4-benzoxazin-2-yl)ethoxy]-a-oxo-], the “Agonist Intrinsic Activity” value is reported as 2.6.
`CCCCCCN1C(=O)C(CCOc2ccccc2CP(=O)(O)O)Oc2ccccc21` (centres unmarked) [Compound 15, Phosphonic acid, [[2-[2-(4-hexyl-3,4-dihydro-3-oxo-2H-1,4-benzoxazin-2-yl)ethoxy]phenyl]methyl]-] was tested, and the “Agonist Intrinsic Activity” value was 7.2.
In the case of `CCCCCCCCCCN1C(=O)C(CCOc2ccccc2C(F)(F)F)Oc2ccccc21` (centres unmarked) [Compound 17], the “Agonist Intrinsic Activity” value is reported as 1.1.
`COCCCCN1C(=O)C(CCOc2ccccc2C(F)(F)F)Oc2ccccc21` (centres unmarked) [Compound 18] was tested, and the “Agonist Intrinsic Activity” value was 0.3.
In the case of `CCOCCCN1C(=O)C(CCOc2ccccc2C(F)(F)F)Oc2ccccc21` (centres unmarked) [Compound 19], the “Agonist Intrinsic Activity” value is reported as 1.4.
With `CCCOCCN1C(=O)C(CCOc2ccccc2C(F)(F)F)Oc2ccccc21` (centres unmarked) [Compound 20] the “Agonist Intrinsic Activity” value was 1.2.
In the case of `CCCSCCN1C(=O)C(CCOc2ccccc2C(F)(F)F)Oc2ccccc21` (centres unmarked) [Compound 21], the “Agonist Intrinsic Activity” value is reported as 1.9.
In the case of `COC(=O)Cc1ccccc1OCCC1Oc2ccccc2N(CC(=O)OC)C1=O` (centres unmarked) [Compound 22], the “Agonist Intrinsic Activity” value is reported as 7.2.
For `O=C(O)Cc1ccccc1OCCC1Oc2ccccc2N(CC(=O)O)C1=O` (centres unmarked) [Compound 23], the “Agonist Intrinsic Activity” value was 0.8.
With `COC(=O)Cc1ccccc1OCCC1Oc2ccccc2N(CCOC(C)=O)C1=O` (centres unmarked) [Compound 24] the “Agonist Intrinsic Activity” value was 1.3.
`O=C(O)Cc1ccccc1OCCC1Oc2ccccc2N(CCO)C1=O` (centres unmarked) [Compound 25] was tested, and the “Agonist Intrinsic Activity” value was 3.5.
With `O=C([O-])c1ccccc1OCCC1Oc2ccccc2N(Cc2cccc(C(F)(F)F)c2)C1=O.[Na+]` (centres unmarked) [Compound 26, Benzoic acid, 2-[2-[3,4-dihydro-3-oxo-4-[[3-(trifluoromethyl)phenyl]methyl]-2H-1,4-benzoxazin-2-yl]ethoxy]-, monosodium salt] the “Agonist Intrinsic Activity” value was 3.1.
With `COC(=O)Cc1ccccc1OCCC1Oc2ccccc2N(Cc2cccc(C(F)(F)F)c2)C1=O` (centres unmarked) [Compound 27] the “Agonist Intrinsic Activity” value was 0.8.
For `O=C([O-])Cc1ccccc1OCCC1Oc2ccccc2N(Cc2cccc(C(F)(F)F)c2)C1=O.[Na+]` (centres unmarked) [Compound 28], the “Agonist Intrinsic Activity” value was 21.5.
For `COC(=O)CCc1ccccc1OCCC1Oc2ccccc2N(Cc2cccc(C(F)(F)F)c2)C1=O` (centres unmarked) [Compound 29], the “Agonist Intrinsic Activity” value was 0.8.
`O=C([O-])CCc1ccccc1OCCC1Oc2ccccc2N(Cc2cccc(C(F)(F)F)c2)C1=O.[Na+]` (centres unmarked) [Compound 30] was tested, and the “Agonist Intrinsic Activity” value was 5.6.
With `COC(=O)CCCc1ccccc1OCCC1Oc2ccccc2N(Cc2cccc(C(F)(F)F)c2)C1=O` (centres unmarked) [Compound 31] the “Agonist Intrinsic Activity” value was 0.9.
For `O=C([O-])CCCc1ccccc1OCCC1Oc2ccccc2N(Cc2cccc(C(F)(F)F)c2)C1=O.[Na+]` (centres unmarked) [Compound 32], the “Agonist Intrinsic Activity” value was 8.2.
In the case of `COC(=O)Cc1cccc(OCCC2Oc3ccccc3N(Cc3cccc(C(F)(F)F)c3)C2=O)c1` (centres unmarked) [Compound 33], the “Agonist Intrinsic Activity” value is reported as 0.8.
`O=C([O-])Cc1cccc(OCCC2Oc3ccccc3N(Cc3cccc(C(F)(F)F)c3)C2=O)c1.[Na+]` (centres unmarked) [Compound 34] was tested, and the “Agonist Intrinsic Activity” value was 10.4.
`COC(=O)CCc1cccc(OCCC2Oc3ccccc3N(Cc3cccc(C(F)(F)F)c3)C2=O)c1` (centres unmarked) [Compound 35] was tested, and the “Agonist Intrinsic Activity” value was 0.8.
In the case of `O=C([O-])CCc1cccc(OCCC2Oc3ccccc3N(Cc3cccc(C(F)(F)F)c3)C2=O)c1.[Na+]` (centres unmarked) [Compound 36], the “Agonist Intrinsic Activity” value is reported as 11.1.
For `COC(=O)Cc1ccccc1OCCC1Oc2ccccc2N(Cc2ccc(C(F)(F)F)cc2)C1=O` (centres unmarked) [Compound 37], the “Agonist Intrinsic Activity” value was 1.2.
With `O=C(O)Cc1ccccc1OCCC1Oc2ccccc2N(Cc2ccc(C(F)(F)F)cc2)C1=O` (centres unmarked) [Compound 38] the “Agonist Intrinsic Activity” value was 38.7.
`O=C(O)Cc1ccccc1OCCC1Oc2ccccc2N(Cc2cc(C(F)(F)F)cc(C(F)(F)F)c2)C1=O` (centres unmarked) [Compound 40] was tested, and the “Agonist Intrinsic Activity” value was 6.7.
In the case of `O=C(O)CCc1ccccc1OCCC1Oc2ccccc2N(Cc2cc(C(F)(F)F)cc(C(F)(F)F)c2)C1=O` (centres unmarked) [Compound 42], the “Agonist Intrinsic Activity” value is reported as 2.1.
For `O=C(O)Cc1cccc(OCCC2Oc3ccccc3N(Cc3cc(C(F)(F)F)cc(C(F)(F)F)c3)C2=O)c1` (centres unmarked) [Compound 44], the “Agonist Intrinsic Activity” value was 6.8.
In the case of `COC(=O)Cc1ccccc1OCCC1Oc2ccccc2N(CC(=O)OC)C1=O` (centres unmarked) [Compound 45], the “Agonist Intrinsic Activity” value is reported as 7.2.
In the case of `O=C(O)Cc1ccccc1OCCC1Oc2ccccc2N(CC(=O)O)C1=O` (centres unmarked) [Compound 46], the “Agonist Intrinsic Activity” value is reported as 2.
In the case of `COC(=O)Cc1ccccc1OCCC1Oc2ccccc2N(CCOC(C)=O)C1=O` (centres unmarked) [Compound 47], the “Agonist Intrinsic Activity” value is reported as 1.3.
With `O=C(O)Cc1ccccc1OCCC1Oc2ccccc2N(CCO)C1=O` (centres unmarked) [Compound 48] the “Agonist Intrinsic Activity” value was 8.
With `C#CCN1C(=O)C(CCOc2ccccc2CC(=O)OC)Oc2ccccc21` (centres unmarked) [Compound 49] the “Agonist Intrinsic Activity” value was 5.7.
`CCCCCCCN1C(=O)C(CCOc2ccccc2CC(=O)OC)Oc2ccccc21` (centres unmarked) [Compound 50] was tested, and the “Agonist Intrinsic Activity” value was 6.2.
In the case of `CCCCCCCN1C(=O)C(CCOc2ccccc2CC(=O)O)Oc2ccccc21` (centres unmarked) [Compound 51], the “Agonist Intrinsic Activity” value is reported as 28.6.
With `CCCCCCCCN1C(=O)C(CCOc2ccccc2CC(=O)OC)Oc2ccccc21` (centres unmarked) [Compound 52] the “Agonist Intrinsic Activity” value was 1.3.
For `CCCCCCCCN1C(=O)C(CCOc2ccccc2CC(=O)O)Oc2ccccc21` (centres unmarked) [Compound 53], the “Agonist Intrinsic Activity” value was 26.4.
In the case of `CCCCCCCCCN1C(=O)C(CCOc2ccccc2CC(=O)OC)Oc2ccccc21` (centres unmarked) [Compound 54], the “Agonist Intrinsic Activity” value is reported as 0.9.
In the case of `CCCCCCCCCN1C(=O)C(CCOc2ccccc2CC(=O)O)Oc2ccccc21` (centres unmarked) [Compound 55], the “Agonist Intrinsic Activity” value is reported as 7.1.
`CCCCCCCCCCN1C(=O)C(CCOc2ccccc2CC(=O)OC)Oc2ccccc21` (centres unmarked) [Compound 56] was tested, and the “Agonist Intrinsic Activity” value was 1.0.
In the case of `CCCCCCCCCCN1C(=O)C(CCOc2ccccc2CC(=O)O)Oc2ccccc21` (centres unmarked) [Compound 57], the “Agonist Intrinsic Activity” value is reported as 9.9.
In the case of `O=C(O)CCCCN1C(=O)C(CCOc2ccccc2CC(=O)O)Oc2ccccc21` (centres unmarked) [Compound 60], the “Agonist Intrinsic Activity” value is reported as 1.5.
For `NC(=O)CCCCN1C(=O)C(CCOc2ccccc2CC(=O)O)Oc2ccccc21` (centres unmarked) [Compound 62], the “Agonist Intrinsic Activity” value was 1.5.
`O=C(O)Cc1ccccc1OCCC1Oc2ccccc2N(CCCCCO)C1=O` (centres unmarked) [Compound 64] was tested, and the “Agonist Intrinsic Activity” value was 3.6.
In the case of `COC(=O)Cc1ccccc1OCCC1Oc2ccccc2N(CCC2CCCCC2)C1=O` (centres unmarked) [Compound 65], the “Agonist Intrinsic Activity” value is reported as 0.8.
`O=C(O)Cc1ccccc1OCCC1Oc2ccccc2N(CCC2CCCC2)C1=O` (centres unmarked) [Compound 68] was tested, and the “Agonist Intrinsic Activity” value was 43.2.
For `O=C(O)Cc1ccccc1OCCC1Oc2ccccc2N(CCCC2CCCC2)C1=O` (centres unmarked) [Compound 70], the “Agonist Intrinsic Activity” value was 57.9.
`CC(C)CCCCN1C(=O)C(CCOc2ccccc2CC(=O)O)Oc2ccccc21` (centres unmarked) [Compound 72] was tested, and the “Agonist Intrinsic Activity” value was 32.
With `CC(C)(C)CCCCN1C(=O)C(CCOc2ccccc2CC(=O)O)Oc2ccccc21` (centres unmarked) [Compound 74] the “Agonist Intrinsic Activity” value was 22.0.
`CC(CCN1C(=O)C(CCOc2ccccc2CC(=O)O)Oc2ccccc21)CC(C)(C)C` (centres unmarked) [Compound 76] was tested, and the “Agonist Intrinsic Activity” value was 28.7.
With `COC(=O)Cc1ccccc1OCCC1Oc2ccccc2N(CCCCC(C)=O)C1=O` (centres unmarked) [Compound 77, Benzeneacetic acid, 2-[2-[3,4-dihydro-3-oxo-4-(5-oxohexyl)-2H-1,4-benzoxazin-2-yl]ethoxy]-, methyl ester] the “Agonist Intrinsic Activity” value was 9.9.
